{"source": "paper PMC4378371", "about": "“Subunit disassembly and inhibition of TNFα by a semi-synthetic bicyclic peptide” (Protein Engineering, Design and Selection, 2015)", "key": {"TNFα trimer": {"tested_on": "TNFα trimer", "details": "TNFα 10 µM with excess peptide 100 µM, longer pre-incubation"}, "TNFα": {"target": "TNFα (Homo sapiens, UniProt P01375)", "sequence (P01375 77-233 limits assumed)": "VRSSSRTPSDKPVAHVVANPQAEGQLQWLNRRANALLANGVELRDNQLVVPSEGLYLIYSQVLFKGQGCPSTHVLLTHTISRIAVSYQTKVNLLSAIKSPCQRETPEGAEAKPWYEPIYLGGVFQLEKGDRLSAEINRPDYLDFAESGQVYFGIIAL", "details": "L929 assay; unable to fully rescue because of toxicity at higher concentrations"}, "L929 cells": {"tested_on": "L929 cells", "details": "at >100 µM compound"}}, "note": "Bridge positions count the residues as written; N and C are the ends. Peptide text beside a SMILES is read from it."}
{"smiles": "Cc1c2c(C)c3c(C)c1CSC[C@H](NC(=O)[C@@H]1CCCN1C(=O)[C@@H]1CCCN1C(=O)[C@@H](NC(=O)[C@H](C)N)CSC3)C(=O)N[C@@H](CC(C)C)C(=O)N[C@@H](Cc1c[nH]c3ccccc13)C(=O)N[C@@H](CCC(N)=O)C(=O)N[C@@H](C(C)C)C(=O)N[C@@H](CC(C)C)C(=O)N[C@H](C(=O)NCC(=O)NCC(=O)N[C@@H](CO)C(=O)NCC(=O)N[C@@H](CO)C(=O)NCC(=O)N[C@@H](CO)C(=O)NCC(N)=O)CSC2", "note": "[M21h]", "values": [{"measurement": "effect on TNFα trimers (MS)", "setting": "TNFα trimer", "value": "converted quantitatively into dimers and monomers"}]}
{"smiles": "CC(C)C[C@H](NC(=O)[C@@H]1CSSC[C@@H]2NC(=O)[C@H](CC(C)C)NC(=O)[C@H](CCC(=O)O)NC(=O)[C@@H](NC(=O)[C@H](CCC(=O)O)NC(=O)[C@H](CC(=O)O)NC(=O)[C@@H](N)CC(N)=O)CSSC[C@H](NC(=O)[C@H](C)NC(=O)[C@H](C(C)C)NC(=O)[C@H](CC(N)=O)NC(=O)[C@H](C(C)C)NC2=O)C(=O)N[C@@H]([C@@H](C)O)C(=O)NCC(=O)N1)C(=O)O", "note": "[SPD304] (H-NDECELCVNVACTGCL-OH; disulfide 4-12, 7-15)", "values": [{"measurement": "maximal rescue of cell viability", "setting": "TNFα", "value": "≤ 73", "unit": "%"}, {"measurement": "cell death", "setting": "L929 cells", "value": 100, "unit": "%"}]}
